Among the data in patent US12091425B2 (AMGEN INC., priority 2016, dated 2024) are IC50 values, retold here.

Assay [1] relates to OPM-2 human multiple myeloma cell line. The assay is described as follows: Cell Viability Assay (OPM-2 10 FBS). Conditions: OPM-2 cells, CellTiter-Glo. The class given is cell-based. An outline of the steps: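 Plated at 3000 cells/well in 10% FBS complete medium, the cells received a serial compound dilution series and incubated 16 h at 37 °C with 5% CO2. CellTiter-Glo was then added; IC50 values were fitted with a logistic 4-parameter model.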
On the technique in general: ATP-based viability assays read luminescence as a measure of living cells.

Assay [2] addresses T1, Mcl-1/Bim interaction, recombinant human Mcl-1 (171-327) (Homo sapiens, UniProt Q07820).
T1 construct: made in house
The assay is described as follows: Cell free Mcl-1: Bim Affinity Assay (Mcl-1 HTRF). The assay is classed as binding. In short, it runs like this:
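TR-FRET competition assay with biotinylated human Bim peptide (residues 51-76); reaction plates incubated overnight before reading. IC50 values came from duplicate data fitted to a four-parameter sigmoidal competition curve.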
For orientation: In TR-FRET formats the signal depends on donor and acceptor labels being close together.

The mark [3] stands for this setting: Homo sapiens, OPM-2, 16 h, 16 h.
The mark [4] stands for this setting: cell free Mcl-1:Bim TR-FRET, recombinant human Mcl-1 (171-327).
The mark [5] stands for this setting: TR-FRET, 0.1 nM Mcl-1 (171-327), 0.05 nM biotin-Bim (51-76).

pIC50: −log10 of the molar value.

In general, pIC50 refers to −log10 of the IC50, conventionally taken in molar units.

T1 sequence (Q07820 171-327): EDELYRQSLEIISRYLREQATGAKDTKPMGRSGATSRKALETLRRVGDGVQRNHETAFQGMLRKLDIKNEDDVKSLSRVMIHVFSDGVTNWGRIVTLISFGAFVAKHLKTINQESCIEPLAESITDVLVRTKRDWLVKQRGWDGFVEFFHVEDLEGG

`C[C@@H]1[C@@H](C)C/C=C/[C@H](OCCN2CCC2)[C@@H]2CC[C@H]2CN2C[C@@]3(CCCc4cc(Cl)ccc43)COc3ccc(cc32)C(=O)NS1(=O)=O` [Example 526, (1S,3′R,6′R,7′S,8′E,11′S,12′R)-7′-(2-(1-azetidinyl)ethoxy)-6-chloro-11′,12′-dimethyl-3,4-dihydro-2H,15′H-spiro[naphthalene-1,22′-[20]oxa[13]thia[1,14]diazatetracyclo[14.7.2.0^3,6.0^19,24]pentacosa [8,16,18,24]tetraen]-15′-one 13′,13′-dioxide 2,2,2-trifluoroacetic Acid]: the pIC50 in assay [1] (setting [3]) was 6.06; in assay [2] (setting [4]), 8.98.

Consider `COCCO[C@H]1/C=C/[C@H](C)C[C@@H](C)S(=O)(=O)NC(=O)c2ccc3c(c2)N(C[C@@H]2CC[C@H]21)C[C@@]1(CCCc2cc(Cl)ccc21)CO3` [Example 1017, (1S,3′R,6′R,7′S,8′E,10′R,12′R)-6-chloro-7′-(2-methoxyethoxy)-10′,12′-dimethyl-3,4-dihydro-2H,15′H-spiro[naphthalene-1,22′-[20]oxa[13]thia[1,14]diazatetracyclo[14.7.2.0^3,6.0^19,24]pentacosa [8,16,18,24]tetraen]-15′-one 13′,13′-dioxide], for which the pIC50 in assay [1] (Homo sapiens, OPM-2, 16 h, 16 h incubation) was 6.51; in assay [2] (setting [5]), 9.47.

As for `C[C@@H]1[C@@H](C)C/C=C/[C@H](OCCN2CC(F)C2)[C@@H]2CC[C@H]2CN2C[C@@]3(CCCc4cc(Cl)ccc43)COc3ccc(cc32)C(=O)NS1(=O)=O` [Example 532, (1S,3′R,6′R,7′S,8′E,11′S,12′R)-6-chloro-7′-(2-(3-fluoro-1-azetidinyl)ethoxy)-11′,12′-dimethyl-3,4-dihydro-2H,15′H-spiro[naphthalene-1,22′-[20]oxa[13]thia[1,14]diazatetracyclo[14.7.2.0^3,6.0^19,24]pentacosa [8,16,18,24]tetraen]-15′-one 13′,13′-dioxide], the negative logarithm of the IC50 (pIC50) in assay [1] (setting [3]) was 6.81; in assay [2] (setting [4]), 9.37.

As for `CN(C)CCNC(=O)CO[C@@H]1/C=C/CCCS(=O)(=O)NC(=O)c2ccc3c(c2)N(C[C@@H]2CC[C@H]21)C[C@@]1(CCCc2cc(Cl)ccc21)CO3` [Example 212, 2-(((1S,3′R,6′R,7′R,8′E)-6-chloro-13′,13′-dioxido-15′-oxo-3,4-dihydro-2H-spiro[naphthalene-1,22′-[20]oxa[13]thia[1,14]diazatetracyclo[14.7.2.0^3,6.0^19,24]pentacosa [8,16,18,24]tetraen]-7′-yl)oxy)-N-(2-(dimethylamino)ethyl)acetamide], the pIC50 was 4.74 in assay [1] (setting [3]) and 8.53 in assay [2] (setting [5]).

With `COCCO[C@H]1/C=C/C[C@@H]2C[C@H]2S(=O)(=O)NC(=O)c2ccc3c(c2)N(C[C@@H]2CC[C@H]21)C[C@@]1(CCCc2cc(Cl)ccc21)CO3` (single isomer, unassigned) [Example 786], the pIC50 is 5.83 in assay [1] (16 h) and 8.99 in assay [2] (setting [4]).

`C=C1[C@@H](C)C/C=C/[C@H](O)[C@@H]2CC[C@H]2CN2C[C@@]3(CCCc4cc(Cl)ccc43)COc3ccc(cc32)C(=O)NS1(=O)=O` (single isomer, unassigned) [Example 468]: the pIC50 in assay [1] (setting [3]) is 6.58; in assay [2] (setting [5]), 9.53.

For the compound `CC[C@@H]1C[C@@H](C)/C=C/[C@H](OCCOC)[C@@H]2CC[C@H]2CN2C[C@@]3(CCCc4cc(Cl)ccc43)COc3ccc(cc32)C(=O)NS1(=O)=O` (single isomer, unassigned) [Example 1025], the pIC50 in assay [1] (16 h incubation) is 6.85; in assay [2] (setting [5]), 9.39.

`CCOC[C@@H]1[C@@H](C)C/C=C/[C@H](OC)[C@@H]2CC[C@H]2CN2C[C@@]3(CCCc4cc(Cl)ccc43)COc3ccc(cc32)C(=O)NS1(=O)=O` (single isomer, unassigned) [Example 469]: the pIC50 is 6.48 in assay [1] (16 h) and 9.01 in assay [2] (setting [5]).
